Measured values published in ChEMBL document CHEMBL1128903, “Atropisomeric carbamoyl type inhibitors of pancreatic cholesterol esterase” (Bioorg Med Chem Lett, 1996).
Several values for one entry are separate records, joined by “and”; a condition that tells them apart may be missing. Identical values can stand only once.

Key:
[1] = target: T1, Bile salt-activated lipase (Bos taurus) (UniProt P30122)
T1 sequence (whole entry): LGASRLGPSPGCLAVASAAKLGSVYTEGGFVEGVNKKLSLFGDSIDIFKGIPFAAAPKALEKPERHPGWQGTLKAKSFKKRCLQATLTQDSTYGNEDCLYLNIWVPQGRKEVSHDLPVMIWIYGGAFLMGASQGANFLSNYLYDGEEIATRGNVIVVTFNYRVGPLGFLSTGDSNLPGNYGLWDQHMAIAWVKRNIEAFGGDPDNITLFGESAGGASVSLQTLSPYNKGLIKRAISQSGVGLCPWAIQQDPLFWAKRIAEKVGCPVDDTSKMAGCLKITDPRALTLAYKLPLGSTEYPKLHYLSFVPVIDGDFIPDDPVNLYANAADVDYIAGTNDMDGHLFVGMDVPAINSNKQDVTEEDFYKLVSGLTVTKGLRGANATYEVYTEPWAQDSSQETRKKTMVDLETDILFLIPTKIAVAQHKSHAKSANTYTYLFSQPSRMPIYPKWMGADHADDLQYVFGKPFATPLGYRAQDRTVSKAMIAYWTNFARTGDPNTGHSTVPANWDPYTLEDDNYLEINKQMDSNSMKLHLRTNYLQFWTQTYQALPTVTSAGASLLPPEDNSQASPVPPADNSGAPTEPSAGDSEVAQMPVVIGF
Description: Carbamylation constant (k2) for the Pancreatic cholesterol esterase-catalyzed hydrolysis of 4-nitrophenyl butyrate

[2] = target: T2, Bile salt-activated lipase (Bos taurus, UniProt P30122); test: Dissociation constant (KI) for the Pancreatic cholesterol esterase-catalyzed hydrolysis of 4-nitrophenyl butyrate
T2 sequence (P30122 whole entry): T1 sequence (whole entry)

[3] = target: T2, Bile salt-activated lipase; test: Bimolecular rate constant (ki) for the Pancreatic cholesterol esterase-catalyzed hydrolysis of 4-nitrophenyl butyrate

For `CCCCNC(=O)Oc1ccc2ccccc2c1-c1c(O)ccc2ccccc12`, the k2 [1] was 0.01 10e3 s-1 and 0.007 10e3 s-1 and 0.006 10e3 s-1, the Ki [2] was 800 nM (2×) and 1.3 µM and the “Bimolecular rate constant (ki)” value [3] was 12000 10e2 M-1 s-1 and 10000 10e2 M-1 s-1 and 5000 10e2 M-1 s-1.

For `CCCCNC(=O)Oc1ccc2ccccc2c1-c1c(OC(=O)CCC)ccc2ccccc12`, the k2 [1] was 0.0008 10e3 s-1 and 0.0006 10e3 s-1 (2×), the Ki [2] was 20 µM and 9 µM and 10 µM and the “Bimolecular rate constant (ki)” value [3] was 40 10e2 M-1 s-1 and 80 10e2 M-1 s-1 and 60 10e2 M-1 s-1.

In the case of `CCCCNC(=O)Oc1ccc2ccccc2c1-c1c(OC(=O)NCCCC)ccc2ccccc12`, the k2 [1] is reported as 0.00095 10e3 s-1 and 0.0016 10e3 s-1 and 0.0012 10e3 s-1.
